Results from patent US11160796B2, “Anti-androgens for the treatment of non-metastatic castration-resistant prostate cancer” (priority 2017, dated 2021).
Like-named read-outs stand apart in the source and are kept apart here.

What was measured:
androgen receptor (AR) = androgen receptor (AR) (Homo sapiens, UniProt P10275); conditions: cited from earlier work
[1] = human, in vivo, po, 240 mg
human CYP2B6 and CYP3A4 = assay: CYP induction in vitro (hepatocytes)
CYP2B6 and CYP2C8 = assay: In vitro CYP inhibition: CYP2B6 and CYP2C8
[2] = human, in vivo
[3] = target: T1, organic anion transporter 1 (OAT1) (Homo sapiens, UniProt Q4U2R8); assay: In vitro transporter inhibition: OAT1
T1 sequence (Q4U2R8 1-563): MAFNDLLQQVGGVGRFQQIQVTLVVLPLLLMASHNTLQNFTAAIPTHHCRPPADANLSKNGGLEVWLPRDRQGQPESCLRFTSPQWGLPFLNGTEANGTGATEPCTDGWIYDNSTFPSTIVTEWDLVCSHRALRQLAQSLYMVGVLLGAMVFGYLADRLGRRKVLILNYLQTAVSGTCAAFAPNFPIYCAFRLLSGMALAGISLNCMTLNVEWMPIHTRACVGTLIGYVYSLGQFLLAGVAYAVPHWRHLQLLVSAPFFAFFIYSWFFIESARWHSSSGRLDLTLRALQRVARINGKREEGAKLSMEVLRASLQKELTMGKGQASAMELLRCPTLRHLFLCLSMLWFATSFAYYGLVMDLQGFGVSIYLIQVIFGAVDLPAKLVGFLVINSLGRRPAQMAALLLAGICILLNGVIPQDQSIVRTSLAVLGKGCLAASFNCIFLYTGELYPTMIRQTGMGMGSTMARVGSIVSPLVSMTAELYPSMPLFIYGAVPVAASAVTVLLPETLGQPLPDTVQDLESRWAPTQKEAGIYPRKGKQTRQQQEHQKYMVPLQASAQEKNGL

[4] = tested on: organic cation transporter 2 (OCT2), organic anion transporter 3 (OAT3) and multidrug and toxin extrusions (MATEs); assay: In vitro transporter inhibition: OCT2, OAT3, MATEs; type: in vitro ADME
[5] = tested on: BCRP, OATP1B1, and OATP1B3; assay: In vitro transporter substrate assessment: BCRP, OATP1B1, OATP1B3
plasma proteins = assay: Plasma protein binding; conditions: no concentration dependency
[6] = Single oral administration of 14C-labeled apalutamide 240 mg (metabolite profile, excretion)
CYP1A2 and CYP2D6 = assay: In vitro effect on CYP1A2 and CYP2D6; conditions: therapeutically relevant concentrations
[7] = Preclinical pharmacokinetic profile; type: in vivo; conditions: relative to apalutamide
P-gp = P-gp (Homo sapiens, UniProt P08183); assay: In vitro transporter substrate assessment: P-gp
Chain of P-gp (P08183 whole entry): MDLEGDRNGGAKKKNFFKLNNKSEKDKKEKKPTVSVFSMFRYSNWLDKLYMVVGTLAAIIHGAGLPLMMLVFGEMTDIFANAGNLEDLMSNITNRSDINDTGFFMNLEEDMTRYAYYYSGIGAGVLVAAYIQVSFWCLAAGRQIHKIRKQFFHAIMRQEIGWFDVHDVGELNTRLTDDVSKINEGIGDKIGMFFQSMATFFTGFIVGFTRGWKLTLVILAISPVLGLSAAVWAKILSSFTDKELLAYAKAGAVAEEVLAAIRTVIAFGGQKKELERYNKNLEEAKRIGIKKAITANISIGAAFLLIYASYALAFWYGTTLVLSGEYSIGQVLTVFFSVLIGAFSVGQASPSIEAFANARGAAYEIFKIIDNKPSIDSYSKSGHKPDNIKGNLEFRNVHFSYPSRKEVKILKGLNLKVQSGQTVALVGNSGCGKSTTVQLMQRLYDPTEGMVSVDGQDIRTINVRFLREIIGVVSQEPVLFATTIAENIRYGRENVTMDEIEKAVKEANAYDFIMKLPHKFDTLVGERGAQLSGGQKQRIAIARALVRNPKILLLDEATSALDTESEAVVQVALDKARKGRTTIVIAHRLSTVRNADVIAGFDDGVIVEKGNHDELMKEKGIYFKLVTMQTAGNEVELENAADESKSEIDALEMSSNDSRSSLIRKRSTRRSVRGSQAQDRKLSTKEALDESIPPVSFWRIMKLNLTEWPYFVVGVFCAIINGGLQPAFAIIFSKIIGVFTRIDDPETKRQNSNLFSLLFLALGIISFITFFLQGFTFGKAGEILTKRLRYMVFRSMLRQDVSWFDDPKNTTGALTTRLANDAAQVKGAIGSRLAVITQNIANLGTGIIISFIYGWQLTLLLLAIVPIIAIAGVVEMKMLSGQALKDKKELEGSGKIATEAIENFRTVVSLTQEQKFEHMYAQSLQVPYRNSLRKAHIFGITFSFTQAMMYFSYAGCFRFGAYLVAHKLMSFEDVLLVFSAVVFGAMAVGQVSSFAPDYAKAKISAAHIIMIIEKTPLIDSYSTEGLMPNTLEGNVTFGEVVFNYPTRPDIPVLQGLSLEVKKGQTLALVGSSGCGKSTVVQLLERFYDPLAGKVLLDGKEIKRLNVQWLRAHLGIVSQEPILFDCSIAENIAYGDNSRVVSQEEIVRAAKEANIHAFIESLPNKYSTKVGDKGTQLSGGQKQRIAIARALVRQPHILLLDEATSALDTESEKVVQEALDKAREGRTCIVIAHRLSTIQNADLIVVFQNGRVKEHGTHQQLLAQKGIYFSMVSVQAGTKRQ

[8] = tested on: CYP2C9, CYP2C19, and CYP3A4; assay: In vitro CYP inhibition: CYP2C9, CYP2C19, CYP3A4
[9] = listed as N-desmethyl metabolite

Chain of androgen receptor (AR) (P10275 whole entry): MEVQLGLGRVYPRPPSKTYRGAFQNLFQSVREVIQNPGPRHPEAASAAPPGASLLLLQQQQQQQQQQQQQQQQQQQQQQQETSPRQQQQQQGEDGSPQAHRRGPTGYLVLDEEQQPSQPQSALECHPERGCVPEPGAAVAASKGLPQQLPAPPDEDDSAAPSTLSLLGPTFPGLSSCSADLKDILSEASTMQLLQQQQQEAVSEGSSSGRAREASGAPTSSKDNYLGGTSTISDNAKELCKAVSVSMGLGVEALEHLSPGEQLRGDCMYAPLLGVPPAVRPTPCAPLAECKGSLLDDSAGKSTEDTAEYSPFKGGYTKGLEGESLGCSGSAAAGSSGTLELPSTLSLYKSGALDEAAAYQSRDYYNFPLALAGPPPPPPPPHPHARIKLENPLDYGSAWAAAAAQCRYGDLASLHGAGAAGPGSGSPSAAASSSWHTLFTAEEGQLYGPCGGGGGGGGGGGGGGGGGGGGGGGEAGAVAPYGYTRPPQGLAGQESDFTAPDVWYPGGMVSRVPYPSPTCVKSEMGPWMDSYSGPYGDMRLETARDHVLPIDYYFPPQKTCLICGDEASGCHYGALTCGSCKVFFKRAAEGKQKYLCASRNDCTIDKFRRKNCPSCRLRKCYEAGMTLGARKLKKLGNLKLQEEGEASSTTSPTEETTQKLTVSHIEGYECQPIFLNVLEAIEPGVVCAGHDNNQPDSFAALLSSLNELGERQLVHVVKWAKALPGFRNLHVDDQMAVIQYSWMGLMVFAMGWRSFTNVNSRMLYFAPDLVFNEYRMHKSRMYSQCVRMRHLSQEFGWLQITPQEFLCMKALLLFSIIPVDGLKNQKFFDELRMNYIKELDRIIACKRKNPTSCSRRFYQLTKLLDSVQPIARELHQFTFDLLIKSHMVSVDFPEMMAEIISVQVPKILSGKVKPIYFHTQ

For `CC(O)c1cc(C(=O)N[C@@H](C)Cn2ccc(-c3ccc(C#N)c(Cl)c3)n2)[nH]n1` (some centres unmarked) [Darolutamide], the “binding affinity to AR” value (androgen receptor (AR)) is listed as “high affinity”.

For `N#Cc1ncc(N2C(=O)C3(CCC3)N(c3ccc(C(=O)O)c(F)c3)C2=S)cc1C(F)(F)F` [inactive carboxylic acid metabolite], the “share of the total 14C-AUC in plasma” value [1] was 3%.

In the case of N-desmethyl apalutamide, the “induction of human CYP2B6 and CYP3A4 in hepatocytes” value (human CYP2B6 and CYP3A4; concentrations up to 30 μM) is reported as “inducers”, the “CYP3A4 and CYP2B6 induction” value (human CYP2B6 and CYP3A4; in vitro studies) is reported as “moderate to strong CYP3A4 and CYP2B6 inducers” and the “inhibition of CYP2B6 and CYP2C8” value (CYP2B6 and CYP2C8) is reported as “moderate inhibitors”. The “AUC at steady-state, mean” value [2] was 124 µg·h/mL, the “Cmax at steady-state, mean” value [2] was 5.9 µg/mL and the “differences in pharmacokinetics in specific populations” value [2] was “No clinically significant differences”. For the same compound, the AUC at steady-state, mean ([2]; 240 mg) was 124 µg·h/mL, the “Cmax at steady-state, mean” value ([2]; 240 mg) was 5.9 µg/mL and the “inhibition of OAT1” value [3] was “do not inhibit”. For the same compound, the “inhibition of OAT1” value [3, 9] was “No in vitro inhibition”, the “inhibition of OCT2, OAT3 and MATEs” value [4] was “inhibit” and the “inhibition of OCT2, OAT3 and MATEs” value [4, 9] was “cannot be excluded”. For the same compound, the “substrate for BCRP, OATP1B1, and OATP1B3” value [5] was “not BCRP, OATP1B1, and OATP1B3”, the “bound to plasma proteins” value (plasma proteins) was 95% and the “share of the total 14C-AUC in plasma” value ([6]; single oral 240 mg) was 44%. The “% of dose in feces as this compound” value ([6]; up to 70 days) was 2%, the “% of dose in urine as this compound” value ([6]; up to 70 days) was 2.7% and the “effect on CYP1A2 and CYP2D6” value (CYP1A2 and CYP2D6) was “do not affect”. The elimination half-life [7] was “longer elimination half-life than apalutamide”, the “substrate for P-gp” value (P-gp) was “substrates for P-gp” and the “inhibition of CYP2C9, CYP2C19, and CYP3A4” value [8] was “weak inhibitors”.
